Source: the supplement of paper PMC13380429

Columns and labels:
Conditions in all cases: 72 h
Vero E6 [1] = assay: relative viability EC50 (midpoint between 100% and the lowest measured viability); higher = less toxic
Caco-2 [2] = assay: as above
U2OS [3] = assay: as above
HepG2 [4] = assay: as above
Calu-3 [5] = assay: as above
Vero E6 [6] = assay: drug sensitivity score (DSS) for viability; higher = more toxic; extreme values may be limits of the assay
Caco-2 [7] = assay: as above
U2OS [8] = assay: as above
HepG2 [9] = assay: as above
Calu-3 [10] = assay: as above
Vero E6 [11] = assay: cell viability relative to DMSO; higher = less toxic
Caco-2 [12] = assay: as above
U2OS [13] = assay: as above
HepG2 [14] = assay: as above
Calu-3 [15] = assay: as above

Row | SMILES | relative viability EC50 (Vero E6 [1]) | relative viability EC50 (Caco-2 [2]) | relative viability EC50 (U2OS [3]) | relative viability EC50 (HepG2 [4]) | relative viability EC50 (Calu-3 [5]) | drug sensitivity score (Vero E6 [6]) | drug sensitivity score (Caco-2 [7]) | drug sensitivity score (U2OS [8]) | drug sensitivity score (HepG2 [9]) | drug sensitivity score (Calu-3 [10]) | cell viability (Vero E6 [11]; 1 nM) | cell viability (Vero E6 [11]; 10 nM) | cell viability (Vero E6 [11]; 100 nM) | cell viability (Vero E6 [11]; 1000 nM) | cell viability (Vero E6 [11]; 10000 nM) | cell viability (Caco-2 [12]; 1 nM) | cell viability (Caco-2 [12]; 10 nM) | cell viability (Caco-2 [12]; 100 nM) | cell viability (Caco-2 [12]; 1000 nM) | cell viability (Caco-2 [12]; 10000 nM) | cell viability (U2OS [13]; 1 nM) | cell viability (U2OS [13]; 10 nM) | cell viability (U2OS [13]; 100 nM) | cell viability (U2OS [13]; 1000 nM) | cell viability (U2OS [13]; 10000 nM) | cell viability (HepG2 [14]; 1 nM) | cell viability (HepG2 [14]; 10 nM) | cell viability (HepG2 [14]; 100 nM) | cell viability (HepG2 [14]; 1000 nM) | cell viability (HepG2 [14]; 10000 nM) | cell viability (Calu-3 [15]; 1 nM) | cell viability (Calu-3 [15]; 10 nM) | cell viability (Calu-3 [15]; 100 nM) | cell viability (Calu-3 [15]; 1000 nM) | cell viability (Calu-3 [15]; 10000 nM)
1 | CCCCCC(O)CCCC(=O)O (stereo not given) | > 10 µM | > 10 µM | > 10 µM | > 10 µM | > 10 µM | 0 | 0.5 | 0 | 0 | 0 | 86.1% | 102% | 95.1% | 95.3% | 90.2% | 95.3% | 79% | 82.1% | 93.7% | 101% | 98.1% | 97.8% | 100% | 95.8% | 102% | 90.7% | 95.5% | 85.8% | 98.5% | 92.5% | 98.6% | 103% | 101% | 95.9% | 99.4%
2 | CCCC[C@]1(CC)CS(=O)(=O)c2cc(CNC(CC(=O)O)CC(=O)O)c(OC)cc2[C@@H](c2ccccc2)N1 | > 10 µM | > 10 µM | > 10 µM | > 10 µM | > 10 µM | 0 | 0 | 0 | 0 | 0 | 95.7% | 94.1% | 96.5% | 91.1% | 104% | 90% | 97.8% | 99.7% | 96.5% | 105% | 96.7% | 101% | 96.8% | 104% | 104% | 105% | 112% | 108% | 97.7% | 112% | 96.3% | 101% | 98% | 89.5% | 100%
3 | CCCN(CC1CC1)c1nc(C)nc(Nc2c(Cl)cc(Cl)cc2Cl)c1Cl | > 10 µM | > 10 µM | > 10 µM | > 10 µM | > 10 µM | 0 | 0 | 0 | 0 | 0 | 98.3% | 96.7% | 94.9% | 96.8% | 106% | 93.5% | 97.8% | 90% | 96.2% | 89.8% | 100% | 97.3% | 103% | 101% | 99.3% | 95.4% | 94% | 106% | 103% | 97.2% | 85.1% | 95.1% | 93.8% | 96.8% | 95.5%
4 | CCn1c(-c2nonc2N)nc2cncc(CNC3CCNCC3)c21 | > 10 µM | > 10 µM | > 10 µM | > 10 µM | > 10 µM | 0 | 0.4 | 1.3 | 3.9 | 0 | 93.3% | 104% | 101% | 93.8% | 94.1% | 93.6% | 95.1% | 105% | 105% | 80.4% | 93.9% | 98.2% | 96.7% | 97.3% | 76.3% | 94.8% | 104% | 89.1% | 80.6% | 79.7% | 94% | 103% | 102% | 120% | 114%
5 | CN1CCN(C(=O)c2nc3ccc(Cl)cc3[nH]2)CC1 | > 10 µM | > 10 µM | > 10 µM | > 10 µM | > 10 µM | 0 | 0 | 0 | 0 | 0 | 97.9% | 106% | 97.8% | 102% | 104% | 106% | 100% | 96.5% | 92.2% | 90.9% | 105% | 97.1% | 103% | 98.1% | 101% | 104% | 107% | 96.7% | 106% | 93.8% | 100% | 99.9% | 87.9% | 96.9% | 101%
6 | COC(=O)Nc1ccc2[nH]cc(CCNC(C)=O)c2c1 | > 10 µM | > 10 µM | > 10 µM | > 10 µM | > 10 µM | 0 | 0 | 0 | 0 | 0 | 99% | 102% | 103% | 95.3% | 99% | 96.3% | 95.8% | 94.6% | 98.9% | 105% | 98.2% | 104% | 98% | 97.2% | 96.6% | 102% | 94.6% | 98.3% | 96.4% | 91% | 103% | 96.6% | 98.1% | 97.8% | 97.8%
7 | COc1cc(Br)c(S(=O)(=O)Nc2ccc(Cl)c(O[C@@H]3CCN(C)C3)c2)cc1OC | > 10 µM | > 10 µM | > 10 µM | 2.13 µM | > 10 µM | 0 | 0 | 0 | 4.9 | 0 | 101% | 93.6% | 96.1% | 97.8% | 108% | 104% | 93.7% | 99.7% | 94.9% | 90% | 95.2% | 97.4% | 88.5% | 97.7% | 95% | 97.6% | 98.3% | 106% | 91.8% | 36.3% | 80.8% | 99.2% | 90.3% | 94.3% | 85%
8 | COc1cc(N2CCOCC2)ccc1Nc1ncc(Cl)c(Nc2ccccc2NS(C)(=O)=O)n1 | 1.47 µM | 1.49 µM | 1.29 µM | 1.29 µM | 0.667 µM | 8.2 | 6.1 | 7.6 | 7.8 | 10.4 | 99.1% | 110% | 99.1% | 76.9% | 15.6% | 99.5% | 91.7% | 94.1% | 80.8% | 35.6% | 102% | 97.2% | 98.8% | 75% | 27.4% | 103% | 101% | 94.7% | 70.6% | 23.1% | 103% | 84.2% | 84.2% | 59.6% | 19.6%
9 | COc1ccc(/C=C/CCCCOc2ccc(C(=O)c3cccc(C(=O)O)c3)cc2CCC(=O)O)cc1 | > 10 µM | > 10 µM | > 10 µM | > 10 µM | > 10 µM | 0 | 0 | 0 | 0 | 0 | 93.9% | 96.3% | 100% | 94.4% | 99% | 96.6% | 94% | 102% | 102% | 95.3% | 95.8% | 96.2% | 96.3% | 100% | 98.7% | 102% | 95.3% | 109% | 110% | 106% | 102% | 84.6% | 102% | 100% | 111%
10 | COc1ccc(NS(=O)(=O)c2sc3ccc(Cl)cc3c2C)cc1N1CCNCC1 | > 10 µM | > 10 µM | > 10 µM | > 10 µM | > 10 µM | 0 | 0 | 0 | 0 | 0 | 93.3% | 98% | 97.6% | 94.4% | 103% | 98.9% | 98.7% | 104% | 102% | 96.1% | 99.9% | 96% | 97.2% | 98.5% | 94.5% | 108% | 104% | 106% | 109% | 87.4% | 104% | 105% | 108% | 105% | 98.1%
11 | CS(=O)(=O)c1ccc(Cn2c3c(c4cc(F)cc(F)c42)CCCC3CC(=O)O)cc1 (stereo not given) | > 10 µM | > 10 µM | > 10 µM | > 10 µM | > 10 µM | 0 | 0 | 0 | 0 | 0 | 98% | 101% | 100% | 99.1% | 95.4% | 97.6% | 96.4% | 96.5% | 96% | 97.7% | 93.1% | 97.2% | 93.5% | 97.1% | 97.6% | 108% | 91% | 97.3% | 95.6% | 94% | 99.7% | 98.4% | 95.3% | 103% | 100%
12 | Cc1cc(-c2nc(C(=O)Nc3cn(C4CCOCC4)nc3C(N)=O)co2)ccn1 | > 10 µM | > 10 µM | > 10 µM | > 10 µM | > 10 µM | 0 | 0 | 0 | 2.9 | 0 | 93.5% | 103% | 101% | 93% | 92.1% | 97.5% | 94.4% | 101% | 98.2% | 93.3% | 99% | 94.7% | 99.8% | 100% | 99.3% | 99.9% | 113% | 88.6% | 82.9% | 96.3% | 109% | 97% | 85.7% | 95% | 93.2%
13 | Cc1ccc([N+](=O)[O-])cc1S(=O)(=O)N(C)C | > 10 µM | > 10 µM | > 10 µM | > 10 µM | > 10 µM | 0 | 0 | 0 | 0 | 0 | 92.8% | 97.9% | 95.6% | 93.1% | 108% | 91.7% | 88.7% | 94.2% | 96.1% | 99.2% | 103% | 99.7% | 103% | 92.6% | 99.9% | 95.7% | 104% | 93.1% | 99.1% | 102% | 97.2% | 92.8% | 94.8% | 107% | 105%
14 | Cc1ccccc1/N=N/c1ccc(NC(=O)c2ccnn2C)c(C)c1 | > 10 µM | > 10 µM | > 10 µM | > 10 µM | > 10 µM | 0 | 0 | 0 | 0 | 0 | 97.3% | 92.1% | 95.2% | 94.1% | 108% | 90.6% | 94% | 97.9% | 93.8% | 91.5% | 96.7% | 102% | 100% | 102% | 93.2% | 107% | 102% | 104% | 91% | 97.6% | 112% | 100% | 97.6% | 99.3% | 90.9%
15 | Cc1cccn2c(=O)c(/C=C(\C#N)c3nc4ccccc4s3)c(Oc3ccc(F)cc3)nc12 | > 10 µM | > 10 µM | > 10 µM | > 10 µM | > 10 µM | 0 | 0 | 0 | 0 | 0 | 103% | 100% | 98.9% | 98.7% | 95.8% | 105% | 96.3% | 113% | 115% | 119% | 98.3% | 98.2% | 98.2% | 103% | 99.1% | 103% | 99.6% | 100% | 99.3% | 102% | 105% | 97.9% | 101% | 104% | 106%
